Where “and” joins values, the source holds several entries; their conditions need not be identical. Equal values may be shown once.
Experiment: Stability of (7aS,2′S)-2-oxo-clopidogrel in plasma containing the reducing agent (Example 8)
Format: in vitro ADME, human
Settings: plasma with reducing agent; for Measured concentration: single replicates
Experimental: S1. Whole blood treatment: taking 3 ml of human whole blood anticoagulated with EDTA-K2 after oral administration of (7aS,2′S)-2-oxo-clopidogrel, cooling to 4° C. on ice, then adding thereto 60 μl of tris(2-carboxyethyl) phosphine at 100 mg/ml; shaking well and then centrifuging (2-8° C., 3000 rpm for 10 min), and collecting plasma for later use.
S2. Plasma sample pre-treatment: taking 100 μl of the plasma, adding 5 μl of an internal standard working solution and 300 μl of acetonitrile respectively; after vortex mixing, centrifuging at 2-8° C. and 10,000 r/min for 10 min, and collecting the supernatant for later use.
S3. LC-MS/MS analysis: injecting 10 μl of the supernatant prepared from step S2 for determination, where the liquid chromatography conditions are: • the chromatographic column is Kinetex® 1.7 μm C18 100 A 100×2.1 mm; the column temperature is 40° C.; the mobile phase is acetonitrile-0.2% aqueous formic acid solution with a flow rate of 0.2 ml/min; and a gradient elution is carried out as specified in the table below:
ESI ion source, positive ion detection in multiple reaction monitoring mode (MRM); the quantitatively analyzed ions (7aS,2′S)-2-oxo-clopidogrel: m/z 338.100→155.000, IS: m/z 341.100→158.000, a capillary voltage of 4.0 KV, a cone voltage of 25 V, a desolvation gas temperature of 400° C. and a source temperature of 150° C. The optimal collision energy is 20 eV.
Blank plasma was taken and operated according to S1 of Example 1 to obtain a blank plasma containing the reducing agent. Subsequently, a standard series solution of (7aS,2′S)-2-oxo-clopidogrel was added to prepare quality control samples containing (7aS,2′S)-2-oxo-clopidogrel at concentrations of 0.1 and 12 ng/ml. The plasma samples were examined for stability after ice box short-term placement, stability after room temperature short-term placement, stability after freeze-thaw cycle and stability after long-term cryopreservation.
The plasma samples at different placing time points were taken to examine the stability by pre-treating the plasma samples according to the method of S2 of Example 1, followed by LC/MS/MS determination according to the method of S3.

[1] = placing at room temperature for 1 h, theoretical 0.1 ng/mL
[2] = placing at room temperature for 1 h, theoretical 12.0 ng/mL
[3] = placing below −60° C. for 36 days, theoretical 0.1 ng/mL
[4] = placing in ice box for 4 h, theoretical 12.0 ng/mL
[5] = three cycles of freeze-thaw, theoretical 0.1 ng/mL
[6] = three cycles of freeze-thaw, theoretical 12.0 ng/mL

`COC(=O)[C@H](c1ccccc1Cl)N1CC[C@@H]2SC(=O)C=C2C1` [(7aS,2′S)-2-oxo-clopidogrel, methyl(S)-2-(2-chlorophenyl)-2-((S)-2-oxo-2,6,7,7a-tetrahydrothieno[3,2-c]pyridin-5 (4H)-yl)acetate] gave a recovery at 1 h, 0.1 ng/mL (human, plasma containing the reducing agent (TCEP), placing at room temperature for 1 h, theoretical 0.1 ng/mL, read-out: Recovery rate) of 102%, a recovery at 1 h, 12 ng/mL (human, plasma containing the reducing agent (TCEP), placing at room temperature for 1 h, theoretical 12.0 ng/mL, read-out: Recovery rate) of 99.4% and a recovery at 36 days, 0.1 ng/mL (human, plasma containing the reducing agent (TCEP), placing below −60° C. for 36 days, theoretical 0.1 ng/mL, read-out: Recovery rate) of 96.4%. It also gave a recovery at 36 days, 12 ng/mL (human, plasma containing the reducing agent (TCEP), placing below −60° C. for 36 days, theoretical 12.0 ng/mL, read-out: Recovery rate) of 97.7%, a recovery at 4 h, 0.1 ng/mL (human, plasma containing the reducing agent (TCEP), placing in ice box for 4 h, theoretical 0.1 ng/mL, read-out: Recovery rate) of 100% and a recovery at 4 h, 12 ng/mL (human, plasma containing the reducing agent (TCEP), placing in ice box for 4 h, theoretical 12.0 ng/mL, read-out: Recovery rate) of 98.5%. The recovery at 0.1 ng/mL (human, plasma containing the reducing agent (TCEP), three cycles of freeze-thaw, theoretical 0.1 ng/mL, read-out: Recovery rate) was 100%, the recovery at 12 ng/mL (human, plasma containing the reducing agent (TCEP), three cycles of freeze-thaw, theoretical 12.0 ng/mL, read-out: Recovery rate) was 99.3% and the Average measured concentration [1] was 0.1021 ng/mL. The Measured concentration [1] was 0.1013 ng/mL and 0.1027 ng/mL and 0.1020 ng/mL and 0.1040 ng/mL and 0.1007 ng/mL, the Average measured concentration [2] was 11.9269 ng/mL and the Measured concentration [2] was 11.8349 ng/mL and 11.7245 ng/mL and 11.8592 ng/mL and 12.1616 ng/mL and 12.0541 ng/mL. For the same compound, the Average measured concentration [3] was 0.0964 ng/mL, the Measured concentration [3] was 0.0980 ng/mL and 0.0940 ng/mL and the Measured concentration (placing in ice box for 4 h, theoretical 0.1 ng/mL) was 0.1013 ng/mL (2×) and 0.0960 ng/mL. The Average measured concentration [4] was 11.8184 ng/mL, the Measured concentration [4] was 12.0320 ng/mL and 11.7632 ng/mL and 11.6883 ng/mL and 11.8822 ng/mL and 11.7261 ng/mL and the Average measured concentration [5] was 0.1003 ng/mL. The Measured concentration [5] was 0.1007 ng/mL (2×) and 0.1013 ng/mL (2×) and 0.0973 ng/mL, the Average measured concentration [6] was 11.9191 ng/mL and the Measured concentration [6] was 11.9123 ng/mL and 11.8416 ng/mL and 11.9078 ng/mL and 11.8995 ng/mL and 12.0342 ng/mL.
